Source: ChEMBL document CHEMBL1128996, “Synthesis and preliminary pharmacological evaluation of analogues of caracasanamide, a hypotensive natural product” (1996)

Columns and labels:
Rattus norvegicus [1] = species: Rattus norvegicus; assay: Compound was tested for cardiac ionotropism and expressed as dP/dtmax.; assay type: functional; set-up: concentration or dose not given beside the values
Rattus norvegicus [2] = assay: Compound was tested for its effect on heart rate in anaesthetized rats after i.v. administration at a dose of 4.12 umol/kg.; assay type: functional
Rattus norvegicus [3] = assay: Compound was tested for its effect on systolic blood pressure in anaesthetized rats after i.v. administration at a dose of 4.12 umol/kg.; assay type: functional, Artery
Rattus norvegicus [4] = assay: Compound was tested for its effect on respiratory frequency in anaesthetized rats after i.v. administration at a dose of 4.12 umol/kg.; assay type: functional
Rattus norvegicus [5] = assay: Compound was tested for its effect on diastolic blood pressure in anaesthetized rats after i.v. administration at a dose of 4.12 umol/kg.; assay type: functional, Artery
Rattus norvegicus [6] = assay: Compound was tested for its effect on heart rate in anaesthetized rats after i.v. administration at a dose of 4.12 umol/kg; assay type: functional

Row | Structure (SMILES) | dP/dt max (Rattus norvegicus [1]) [mmHg s-1] | HR (Rattus norvegicus [2]) [delta beats min-1] | Activity (Rattus norvegicus [3]) [delta mmHg] | RF (Rattus norvegicus [4]) [delta beats min-1] | Activity (Rattus norvegicus [5]) [delta mmHg] | HR (Rattus norvegicus [6]) [delta beats min-1]
1 | COc1ccc(C#CC(=O)NCCCC/N=C(\N)NCC=C(C)C)cc1OC.CS(=O)(=O)O | 3424 | 14 | -14 | 14 | -24 | 
2 | COc1ccc(/C=C/C(=O)NCCCC/N=C(\N)NCC=C(C)C)cc1OC.CS(=O)(=O)O | 2996 | 22 | -21 | 23 | -18 | 
3 | COc1ccc(C(=O)NCCCC/N=C(\N)NCC=C(C)C)cc1.CS(=O)(=O)O | 3249 | -16 | -26 | 17 | -35 | 
4 | COc1ccc(/C=C/C(=O)NCCCCC/N=C(\N)NCC=C(C)C)cc1OC.CS(=O)(=O)O | 5028 |  | -34 | -10 | -40 | 8
5 | CC(C)=CC/N=C(/N)NCCCCNC(=O)/C=C/c1ccccc1.CS(=O)(=O)O | 6070 | 19 | -47 | 12 | -59 | 
6 | COc1ccc(CC(=O)NCCCC/N=C(\N)NCC=C(C)C)cc1OC.CS(=O)(=O)O | 3088 | -24 | -22 | 16 | -31 | 
7 | COc1ccc(CCC(=O)NCCCC/N=C(\N)NCC=C(C)C)cc1OC.CS(=O)(=O)O | 2252 | -12 | -15 | 6 | -14 | 
8 | COc1ccc([C@H]2C[C@@H]2C(=O)NCCCC/N=C(\N)NCC=C(C)C)cc1OC.CS(=O)(=O)O | 2781 | -19 | -30 | 19 | -26 | 
9 | COc1ccc(/C=C/C(=O)NCCCCCC/N=C(\N)NCC=C(C)C)cc1OC.CS(=O)(=O)O | 648 |  | -9 | 4 | -8 | 4
